Results on ten compounds are retold here after patent US10647713B2 (Nimbus Lakshmi, Inc., priority 2016, dated 2020).

Sequence of human TYK2 (JH2domain-pseudokinase) (P29597 556-888): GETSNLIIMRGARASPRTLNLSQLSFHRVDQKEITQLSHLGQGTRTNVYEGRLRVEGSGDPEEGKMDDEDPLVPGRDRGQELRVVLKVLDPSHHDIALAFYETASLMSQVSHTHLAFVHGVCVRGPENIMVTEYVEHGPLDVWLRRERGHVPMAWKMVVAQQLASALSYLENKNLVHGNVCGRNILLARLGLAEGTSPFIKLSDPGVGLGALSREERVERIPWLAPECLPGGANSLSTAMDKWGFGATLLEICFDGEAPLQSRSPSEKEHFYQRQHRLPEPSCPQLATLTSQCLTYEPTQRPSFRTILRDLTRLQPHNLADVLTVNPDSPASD

The experiment addresses human TYK2 (JH2domain-pseudokinase) (Homo sapiens (Human), UniProt P29597). The experiment is described as follows: TYK2 JH2 Domain Binding Assay (KINOMEscan, DiscoveRx). Conditions: 11-point dilution, duplicate. The method, boiled down:
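Kd from duplicate 11-point 3-fold dilutions starting at 30,000 nM, fitted by Hill equation with slope fixed at −1. Compounds (final 0.9% DMSO) displace DNA-tagged HEK293-expressed TYK2 JH2 fusion (<0.1 nM) from ligand-coated beads over 1 h at room temperature; eluted kinase read by qPCR.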
On to `Cc1nc(-c2ccc(Nc3cc(Nc4cnc(C)c(C)n4)nc4[nH]c(C(F)F)nc34)c(N(C)S(C)(=O)=O)c2)n(C)n1` [I-166, N-(2-((2-(difluoromethyl)-5-((5,6-dimethylpyrazin-2-yl)amino)-3H-imidazo[4,5-b]pyridin-7-yl)amino)-5-(1,3-dimethyl-1H-1,2,4-triazol-5-yl)phenyl)-N-methyl-methanesulfonamide], for which the Kd was 0.1 to 0.5 nM.
As for `COc1c(Nc2cc(Nc3cc(F)c(N4CC(OC)C4)cn3)nc3[nH]c(C(F)F)nc23)cccc1-c1nc(C)nn1C` [I-167, 2-(difluoromethyl)-N7-(3-(1,3-dimethyl-1H-1,2,4-triazol-5-yl)-2-methoxyphenyl)-N5-(4-fluoro-5-(3-methoxyazetidin-1-yl)pyridin-2-yl)-3H-imidazo[4,5-b]pyridine-5,7-diamine], the Kd is over 10 nM.
For the compound `COc1c(Nc2cc(Nc3cc(F)c(N4CC(OC)C4)cn3)nc3[nH]c(C)nc23)cccc1-c1nc(C)nn1C` [I-168, N7-(3-(1,3-dimethyl-1H-1,2,4-triazol-5-yl)-2-methoxyphenyl)-N5-(4-fluoro-5-(3-methoxyazetidin-1-yl)pyridin-2-yl)-2-methyl-3H-imidazo[4,5-b]pyridine-5,7-diamine], the dissociation constant Kd is over 10 nM.
`Cc1cnc(-c2ccc(Nc3cc(NC(=O)C4CC4)nc4[nH]c(C(F)F)nc34)c(N(C)S(C)(=O)=O)c2)n1C` [I-169, N-(2-(difluoromethyl)-7-((4-(1,5-dimethyl-1H-imidazol-2-yl)-2-(N-methylmethylsulfonamido)phenyl)amino)-3H-imidazo[4,5-b]pyridin-5-yl)cyclopropanecarboxamide] registered a Kd of 0.1 to 0.5 nM.
With `Cc1nc2c(Nc3ccc(-c4ncc(C)n4C)cc3N(C)S(C)(=O)=O)cc(NC(=O)C3CC3)nc2[nH]1` [I-170, N-(7-((4-(1,5-dimethyl-1H-imidazol-2-yl)-2-(N-methylmethyl-sulfonamido)phenyl)amino)-2-methyl-3H-imidazo[4,5-b]pyridin-5-yl)cyclopropanecarboxamide], the Kd fell in the range of 0.1 to 0.5 nM.
In turn, `CN(c1cc(-c2ccn(C)n2)ccc1Nc1cc(NC(=O)C2CC2)nc2[nH]c(C(F)F)nc12)S(C)(=O)=O` [I-171, N-(2-(difluoromethyl)-7-((4-(1-methyl-1H-pyrazol-3-yl)-2-(N-methylmethylsulfonamido)phenyl)amino)-3H-imidazo[4,5-b]pyridin-5-yl)cyclopropaneCarboxamide] had a Kd of 0.1 to 0.5 nM.
`COc1c(Nc2cc(NC(=O)C3CC3)nc3[nH]c(C(F)(F)F)nc23)cccc1-c1nnn(C)n1` [I-172, N-(7-((2-methoxy-3-(2-methyl-2H-tetrazol-5-yl)phenyl)amino)-2-(trifluoromethyl)-3H-imidazo[4,5-b]pyridin-5-yl)cyclopropanecarboxamide] gave a Kd of over 10 nM.
The figure for `Cc1nc(-c2ccc(Nc3cc(Nc4cnc(C)c(C)n4)nc4[nH]c(C)nc34)c(N(C)S(C)(=O)=O)c2)n(C)n1` [I-173, N-(5-(1,3-dimethyl-1H-1,2,4-triazol-5-yl)-2-((5-((5,6-dimethylpyrazin-2-yl)amino)-2-methyl-3H-imidazo[4,5-b]pyridin-7-yl)amino)phenyl)-N-methylmethanesulfonamide] is over 10 nM.
The figure for `Cc1nc2c(Nc3ccc(-c4ccn(C)n4)cc3N(C)S(C)(=O)=O)cc(NC(=O)C3CC3)nc2[nH]1` [I-174, N-(2-methyl-7-((4-(1-methyl-1H-pyrazol-3-yl)-2-(N-methyl-methysulfonamido)phenyl)amino)-3H-imidazo[4,5-b]pyridin-5-yl)cyclopropanecarboxamide] is 0.1 to 0.5 nM; for `Cc1cn(C)c(-c2ccc(Nc3cc(NC(=O)C4CC4)nc4[nH]c(C(F)F)nc34)c(N(C)S(C)(=O)=O)c2)n1` [I-175, N-(2-(difluoromethyl)-7-((4-(1,4-dimethyl-1H-imidazol-2-yl)-2-(N-methylmethylsulfonamido)phenyl)amino)-3H-imidazo[4,5-b]pyridin-5-yl)cyclopropane-Carboxamide] it is 0.5 to 1 nM.

A word on the Kd: it is a measure of binding affinity in units of concentration. Higher therefore signals weaker binding.
